Measurements published in patent US20100286155A1, “ADRENOCORTICAL CARCINOMA TREATMENT” (OSI PHARMACEUTICALS, INC., priority 2009, published 2010).

Experiments:
[1] = tested on: adrenocortical carcinoma (ACC); assay: Phase I clinical trials of OSI-906 in ACC patients (RECIST, CT, FDG-PET); format: in vivo, human
Protocol: As of 14 Apr. 2009 in two phase I clinical trials, seven patients have been enrolled with ACC.
Patient 1 is a ACC patient, previously treated with six cycles of etoposide, cisplatin, and doxorubicin and mitotane from Feb. 2008 to Jul. 2008. […] 1, 2008, 450 mg/day, escalating to 600 mg, on days 1-3 of each 14 day period. At 8 weeks of treatment, CT scan was reported as stable. […] The overall reduction in RECIST measurement of target lesions was 43%. Subsequent scans indicated incremental response, including a scan showing a partial response of 72% decrease by RECIST compared to baseline. […] ACC is typically thought to be an FDG-avid tumor.
Objective Response Criteria (RECIST)
Complete Response: Disappearance of all clinical and radiological evidence of tumor (both target and nontarget) including normalization of elevated tumor markers at baseline, if documented. The patient must be free of all tumor-related symptoms. Complete Response must be confirmed at a second tumor assessment not less than 28 days apart from the assessment at which CR was observed.
Partial Response: At least a 30% decrease in the sum of Longest Diameter (LD) of target lesions taking as reference the baseline sum LD. Partial Response must be confirmed at a second tumor assessment not less than 28 days apart from the assessment at which PR was observed.
Stable Disease: Steady state of disease. Neither sufficient shrinkage to qualify for PR nor sufficient increase to qualify for progressive disease. Stable disease must be documented to be present at least 28 days from the start of the therapy. There may be no appearance of new lesions for this category.
Progressive Disease: At least a 20% increase in the sum of LD of measured lesions taking as references the smallest sum LD recorded since the treatment started. Appearance of new lesions will also constitute progressive disease. In exceptional circumstances, unequivocal progression of nontarget lesions may be accepted as evidence of disease progression (DP).
All patients who have measurable disease according to RECIST, who received at least 2 treatment periods of therapy, and who have their disease re-evaluated will be evaluable for response. All sites of disease should be followed as either target or nontarget lesions, as categorized at baseline. All measurable lesions up to a maximum of 5 lesions per organ or 10 lesions in total, representative of all involved organs, should be identified as target lesions, while all other lesions (either additional measurable lesions or nonmeasurable lesions) should be classified as nontarget lesions. To ensure comparability, the baseline radiology/scans and subsequent radiology/scans to assess response should be performed using identical techniques (i.e., scans performed immediately following bolus contrast administration should be made with a standard volume of contrast, the identical contrast agent, and preferably the same scanner). The same method, radiological or physical, should be employed and assessed by the same individual on each occasion.

IGF-1R = molecular target: T1, IGF-1R (Homo sapiens, UniProt P08069); assay: pIGF-1R inhibition in H295R tumor cells, RTK capture array; format: cell-based; conditions: 3 uM, 24 hours
T1 construct: endogenous in cells; host or cells: H295R ACC tumor cell line
Protocol: (§1) Measurement of pIGF-1R and pIR was determined by RTK capture array (ARY001, R&D Systems), and measurement of pAkt was determined by WB.

pAkt = pAkt inhibition in H295R tumor cells, WB; format: cell-based, human; conditions: 3 uM, 24 hours
Protocol: as §1

[2] = tested on: H295R ACC tumor cell line; assay: H295R ACC tumor cell line OSI-906 sensitivity: proliferation (Cell Titer Glo) and apoptosis (Caspase Glo); format: cell-based, human; conditions: varying concentrations; proliferation at 72 h, apoptosis at 48 h after dosing
[3] = Patient 1, 450 mg/day escalating to 600 mg, days 1-3 of each 14 day period
[4] = seven ACC patients enrolled in two phase I trials, as of 14 Apr. 2009

T1 sequence (P08069 31-1367): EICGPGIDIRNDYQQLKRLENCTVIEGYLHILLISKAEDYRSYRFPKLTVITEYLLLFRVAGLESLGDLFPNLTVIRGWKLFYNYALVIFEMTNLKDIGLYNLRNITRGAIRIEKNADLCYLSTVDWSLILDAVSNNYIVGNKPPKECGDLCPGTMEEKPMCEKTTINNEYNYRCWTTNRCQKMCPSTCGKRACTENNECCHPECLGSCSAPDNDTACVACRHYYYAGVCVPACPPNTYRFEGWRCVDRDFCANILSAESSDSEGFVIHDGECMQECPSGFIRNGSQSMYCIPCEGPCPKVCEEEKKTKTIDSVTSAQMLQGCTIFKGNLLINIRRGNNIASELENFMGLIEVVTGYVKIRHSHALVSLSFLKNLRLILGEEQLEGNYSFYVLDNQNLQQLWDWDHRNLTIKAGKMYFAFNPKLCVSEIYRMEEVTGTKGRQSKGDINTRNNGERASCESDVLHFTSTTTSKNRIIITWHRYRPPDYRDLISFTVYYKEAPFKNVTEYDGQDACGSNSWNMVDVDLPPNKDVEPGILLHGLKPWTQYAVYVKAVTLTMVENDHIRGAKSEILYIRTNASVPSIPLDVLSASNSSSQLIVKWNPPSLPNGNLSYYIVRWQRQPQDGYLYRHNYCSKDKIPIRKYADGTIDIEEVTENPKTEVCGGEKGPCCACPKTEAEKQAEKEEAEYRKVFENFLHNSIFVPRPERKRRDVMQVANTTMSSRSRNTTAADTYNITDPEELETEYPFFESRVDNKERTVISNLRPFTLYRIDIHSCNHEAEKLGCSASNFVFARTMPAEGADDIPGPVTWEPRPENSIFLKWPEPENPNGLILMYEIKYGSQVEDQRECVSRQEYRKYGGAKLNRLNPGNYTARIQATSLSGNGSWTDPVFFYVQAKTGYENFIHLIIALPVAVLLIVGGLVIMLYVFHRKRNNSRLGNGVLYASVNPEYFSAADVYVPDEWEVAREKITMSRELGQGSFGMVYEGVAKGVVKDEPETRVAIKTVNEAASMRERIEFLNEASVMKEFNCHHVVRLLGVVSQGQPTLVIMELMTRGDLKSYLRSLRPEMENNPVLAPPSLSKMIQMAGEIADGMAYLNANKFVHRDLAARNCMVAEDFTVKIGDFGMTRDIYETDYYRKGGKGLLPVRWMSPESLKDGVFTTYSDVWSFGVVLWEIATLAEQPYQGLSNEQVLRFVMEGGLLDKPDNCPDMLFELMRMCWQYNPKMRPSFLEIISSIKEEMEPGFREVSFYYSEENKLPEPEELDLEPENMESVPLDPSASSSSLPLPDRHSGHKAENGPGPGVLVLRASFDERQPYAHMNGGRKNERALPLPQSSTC

SMILES: C[C@]1(O)C[C@@H](c2nc(-c3ccc4ccc(-c5ccccc5)nc4c3)c3c(N)nccn32)C1 [OSI-906, cis-3-[8-amino-1-(2-phenyl-quinolin-7-yl)-imidazo[1,5-a]pyrazin-3-yl]-1-methyl-cyclobutanol]
- CT scan result at 8 weeks of treatment [1, 3]: stable
- CT scan result at 16 weeks [1, 3]: decrease in primary lesion as well as improvement in all pulmonary lesions
- 18-FDG-PET scan tumor uptake of tracer ([1]; Patient 1, 30 weeks into treatment, residual primary tumor and two remaining metastases): no tumor uptake of the tracer
- overall reduction in RECIST measurement of target lesions ([1]; Patient 1, at 16 weeks): 43%
- partial response, decrease by RECIST compared to baseline ([1]; Patient 1, subsequent scan): 72%
- drug-related toxicities ([1]; Patient 1, up to 56 weeks): No drug-related toxicities have been observed
- patients with partial response [1, 4]: One had partial response
- patients with stable disease [1, 4]: two had stable disease for >6 months
- patients with symptomatic response [1, 4]: one had a dramatic, short-lived sympitomatic response
- inhibition of phosphorylation of IGF-1R (pIGF-1R) (IGF-1R): inhibits phosphorylation of both receptors
- inhibition of pAkt (pAkt): inhibition of pAkt
- sensitivity of H295R ACC tumor cell line (proliferation and apoptosis) [2]: exhibits sensitivity to OSI-906
